Assay results from ChEMBL document CHEMBL6114985, “From Dyrk1A inhibitors to a novel class of antiviral agents: Targeting Enterovirus EV-A71 with 2-aryl-substituted thiophene scaffolds” (Eur J Med Chem, 2025).
Active and inactive are the calls of the source. The calls are words filed in the database; no cut-off is given here.

Experiments:
Enterovirus A71 [1] = assay: Antiviral activity against Enterovirus A71 TW/2231/98 infected in human RD cells assessed as reduction in cytopathic effect incubated for 3 days; format: functional, organism-based; conditions: Enterovirus A, TW/2231/98, RD, 72 h
[2] = Cytotoxicity against human RD cells assessed as reduction in cell growth incubated for 3 days by MTT assay; format: toxicity, cell-based; conditions: time 3 day
[3] = Selectivity index, ratio of CC50 for human RD cells to EC50 for antiviral activity against enterovirus A71 TW/2231/98 infected in human RD cells; format: toxicity, cell-based; conditions: read-out: Ratio CC50/EC50
[4] = molecular target: T1, Dual specificity tyrosine-phosphorylation-regulated kinase 1A (Homo sapiens, UniProt Q13627); assay: Inhibition of DYRK1A (unknown origin) at 25 uM incubated for 1 hr relative to control
[5] = molecular target: T1, Dual specificity tyrosine-phosphorylation-regulated kinase 1A; assay: Inhibition of DYRK1A (unknown origin)
[6] = Cytotoxicity against human A549 cells infected with Human adenovirus; format: toxicity, cell-based
[7] = Cytotoxicity against human A549 cells infected with Herpes Simplexvirus; format: toxicity, cell-based; conditions: A549 cells infected with herpes simplex virus
Enterovirus A71 [8] = assay: Antiviral activity against Enterovirus A71 TW/2231/98 infected in human RD cells assessed as inhibition of viral plaque formation at 1.25 uM incubated for 3 to 5 days by crystal violet staining based plaque reduction assay relative to control; format: functional; conditions: Enterovirus A, TW/2231/98, RD, time 3-5 day
Enterovirus A71 [9] = assay: Antiviral activity against Enterovirus A71 TW/2231/98 infected in human RD cells assessed as effect on viral replication incubated for 3 to 5 days by crystal violet staining based plaque reduction assay; format: functional, organism-based; conditions: time 3-5 day
Enterovirus A71 [10] = assay: Antiviral activity against Enterovirus A71 TW/2231/98 infected in human RD cells assessed as inhibition of viral plaque formation at 2.5 uM incubated for 3 to 5 days by crystal violet staining based plaque reduction assay relative to control; format: functional; conditions: Enterovirus A, TW/2231/98, RD, time 3-5 day
Enterovirus A71 [11] = assay: Antiviral activity against Enterovirus A71 TW/2231/98 infected in human RD cells assessed as inhibition of viral plaque formation at 5 uM incubated for 3 to 5 days by crystal violet staining based plaque reduction assay relative to control; format: functional; conditions: Enterovirus A, TW/2231/98, RD, time 3-5 day
[12] = Lipophilicity, logD of compound by UPLC-MS analysis; format: physicochemical; conditions: octanol/water
[13] = Metabolic stability in mouse liver microsome assessed as half life incubated for 120 mins by HPLC-MS/MS; format: ADME; conditions: liver microsomes
[14] = Metabolic stability in mouse liver microsome assessed as intrinsic clearance incubated for 120 mins by HPLC-MS/MS; format: ADME; conditions: liver microsomes, read-out: CLH
[15] = Metabolic stability in human liver microsome assessed as half life incubated for 120 mins by HPLC-MS/MS; format: ADME; conditions: liver microsomes
[16] = Metabolic stability in human liver microsome assessed as intrinsic clearance incubated for 120 mins by HPLC-MS/MS; format: ADME; conditions: liver microsomes, read-out: CLH
[17] = Stability in mouse plasma assessed as half life by HPLC-MS/MS; format: ADME, cell-free
[18] = Stability in human plasma assessed as half life by HPLC-MS/MS; format: ADME, cell-free
Herpes Simplexvirus [19] = assay: Antiviral activity against Herpes Simplexvirus infected in human A549 cells assessed as inhibition of viral replication at 0.95 uM relative to control; format: functional
Enterovirus A71 [20] = assay: Antiviral activity against Enterovirus A71 TW/2231/98 infected in human RD cells assessed as effect on viral protein level at 10 uM preincubated with cells at 1 hr followed by compound addition and measured at 0 to 3 hrs post infection by time of addition based immunoblotting analysis; format: functional, organism-based
Enterovirus A71 [21] = assay: Antiviral activity against Enterovirus A71 TW/2231/98 infected in human RD cells assessed as effect on viral RNA level at 10 uM preincubated with cells at 1 hr followed by compound addition and measured at 0 to 3 hrs post infection by time of addition based RT-qPCR analysis; format: functional, organism-based
Enterovirus A71 [22] = assay: Antiviral activity against Enterovirus A71 TW/2231/98 infected in human RD cells assessed as effect on viral titer at 10 uM preincubated with cells at 1 hr followed by compound addition and measured at 0 to 3 hrs post infection by time of addition based plaque assay; format: functional, organism-based
Enterovirus A71 [23] = assay: Antiviral activity against Enterovirus A71 TW/2231/98 infected in human RD cells assessed as reduction in viral protein level at 10 uM preincubated with cells at 1 hr followed by compound addition and measured after 9 hrs post infection by time of addition based immunoblotting analysis; format: functional, organism-based
Enterovirus A71 [24] = assay: Antiviral activity against Enterovirus A71 TW/2231/98 infected in human RD cells assessed as reduction in viral RNA level at 10 uM preincubated with cells at 1 hr followed by compound addition and measured after 9 hrs post infection by time of addition based RT-qPCR analysis; format: functional, organism-based
Enterovirus A71 [25] = assay: Antiviral activity against Enterovirus A71 TW/2231/98 infected in human RD cells assessed as reduction in viral titer at 10 uM preincubated with cells at 1 hr followed by compound addition and measured after 9 hrs post infection by time of addition based plaque assay; format: functional, organism-based
Enterovirus A71 [26] = assay: Antiviral activity against Enterovirus A71 2231 assessed as reduction in viral replication; format: functional, organism-based; conditions: Enterovirus A
Enterovirus A71 [27] = assay: Antiviral activity against Enterovirus A71 4798 assessed as reduction in viral replication; format: functional, organism-based; conditions: Enterovirus A
enterovirus D68 [28] = assay: Antiviral activity against Enterovirus D68 2795 assessed as reduction in viral replication; format: functional, organism-based; conditions: Enterovirus D
enterovirus D68 [29] = assay: Antiviral activity against Enterovirus D68 KY 18953 assessed as reduction in viral replication; format: functional, organism-based; conditions: Enterovirus D
Coxsackievirus = assay: Antiviral activity against Coxsackievirus assessed as reduction in viral replication; format: functional, organism-based
Human rhinovirus sp. = assay: Antiviral activity against Human rhinovirus 71803 assessed as reduction in viral replication; format: functional, organism-based
Influenza A virus = assay: Antiviral activity against influenza A virus assessed as reduction in viral replication; format: functional, organism-based
in vitro = conditions: human, A549 cells
Human adenovirus sp. = assay: microbe, parasite or virus in culture; conditions: A549
Herpes Simplexvirus [30] = assay: microbe, parasite or virus in culture; conditions: A549

For `COc1ccc(F)c(C(=O)Nc2cncc(-c3cc(-c4cccnc4)cs3)c2)c1`, the EC50 (Enterovirus A71 [1]) was 4.4 µM, the CC50 at 72 h [2] was 12.8 µM and the selectivity ratio [3] was 2.9. It also gave an inhibition [4] of 95%, an IC50 [5] of 0.038 µM and a CC50 [6] greater than 10 µM. For the same molecule, the CC50 [7] was greater than 15 µM, the inhibition at 1.25 µM (Enterovirus A71 [8]) was 20% and the Activity (Enterovirus A71 [9]) was “Active”. It also gave an inhibition at 2.5 µM (Enterovirus A71 [10]) of roughly 60%, an inhibition at 5 µM (Enterovirus A71 [11]) of 80% and a logD [12] of 3.44. The half-life [13] was 14 min, the microsomal CLint [14] was 104 µL/min/mg and the half-life [15] was 55 min. The microsomal CLint [16] was 27 µL/min/mg, the half-life [17] was greater than 240 min and the half-life [18] was greater than 240 min. The inhibition at 0.95 µM (Herpes Simplexvirus [19]) was 50%, the Activity (Enterovirus A71 [20]) was “inactive” and the Activity (Enterovirus A71 [21]) was “inactive”. For the same molecule, the Activity (Enterovirus A71 [22]) was “inactive”, the Activity (Enterovirus A71 [23]) was “Active” and the Activity (Enterovirus A71 [24]) was “Active”. For the same molecule, the Activity (Enterovirus A71 [25]) was “Active”, the EC50 (Enterovirus A71 [26]) was 4.4 µM and the EC50 (Enterovirus A71 [27]) was 4.2 µM. It also gave an EC50 (enterovirus D68 [28]) of 4.7 µM, an EC50 (enterovirus D68 [29]) of 3.4 µM and an EC50 (Coxsackievirus) of 2.8 µM. For the same molecule, the EC50 (Human rhinovirus sp.) was 4.2 µM, the EC50 (Influenza A virus) was greater than 10 µM and the selectivity ratio (in vitro) was greater than 15. For the same molecule, the EC50 (Human adenovirus sp.) was greater than 10 µM and the EC50 (Herpes Simplexvirus [30]) was 1 µM.
